Key:
velvetleaf = test: Test C pre-/postemergence herbicide test; format: in vivo, Abutilon theophrasti
Summary of the method: (§1)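 Visual ratings on a 0–100 scale (100 = complete control) made versus untreated controls after 12 to 14 greenhouse days. Test chemicals, formulated in surfactant-containing non-phytotoxic solvent, applied preemergence to planted seeds or postemergence to 1- to 4-leaf plants (2 to 18 cm).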

[1] = test system: smallflower umbrella sedge; test: Test C flooded paddy test; format: in vivo, Cyperus difformis; details: for Plant response rating, Sedge, Umbrella: 500 g ai/ha, visual rating after 12 to 14 days
corn = test: Test C pre-/postemergence herbicide test; format: in vivo, Zea mays
Summary of the method: as §1

[2] = test system: common (oilseed) sunflower; test: Test C pre-/postemergence herbicide test; format: in vivo, Helianthus annuus
Summary of the method: as §1

woolly cupgrass = test: Test C pre-/postemergence herbicide test; format: in vivo, Eriochloa villosa
Summary of the method: as §1

bermudagrass = test: Test C pre-/postemergence herbicide test; format: in vivo, Cynodon dactylon; details: for Bermudagrass plant response rating: Preemergence, 500 g ai/ha
Summary of the method: as §1

soybean = test: Test C pre-/postemergence herbicide test; format: in vivo, Glycine max
Summary of the method: as §1

large crabgrass = test: Test A pre-/postemergence herbicide test; format: in vivo, Digitaria sanguinalis
Summary of the method: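 Visual injury scores on a 0–100 scale (100 = complete control) taken about ten days post-treatment in greenhouse against untreated controls; dash means no result. Treatments: preemergence soil spray and postemergence spray to runoff on one- to two-leaf plants 2 to 10 cm tall, surfactant-containing formulation.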

rice [3] = test: Test C flooded paddy test; format: in vivo, Oryza sativa; details: for Plant response rating, Rice: 500 g ai/ha, visual rating after 12 to 14 days
Summary of the method: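 Plants were grown to the 1- to 4-leaf stage (2–18 cm) and then treated postemergence, or grown to the 2-leaf stage for the flooded paddy test. They were held in a greenhouse for 12 to 14 days and then scored by eye against controls, where 0 is no effect and 100 is complete control.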

rice [4] = test: Test B pre-/postemergence herbicide test; format: in vivo, Oryza sativa; details: preemergence
Summary of the method: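 Test chemicals in a non-phytotoxic solvent mixture with surfactant were applied preemergence to seeded species and postemergence to plants 2-18 cm tall (1- to 4-leaf stage); rice and barnyardgrass were also tested in a flooded paddy at the 2-leaf stage. Visual rating versus controls after 13-15 days in greenhouse, scale 0 (no effect) to 100 (complete control).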

[5] = 125 g ai/ha, scale 0 (no effect) to 100 (complete control), visual, 12 to 14 days, preemergence
[6] = Postemergence, 500 g ai/ha, scale 0 to 100
[7] = Postemergence, 250 g ai/ha, scale 0 to 100, 0 no effect, 100 complete control
[8] = Preemergence, 500 g ai/ha, scale 0 to 100, 0 no effect, 100 complete control
[9] = postemergence, 125 g ai/ha, scale 0 to 100
[10] = postemergence, 62 g ai/ha, scale 0 to 100
[11] = 62 g ai/ha, scale 0 to 100 (0 no effect, 100 complete control)
[12] = 125 g ai/ha, scale 0 to 100 (0 no effect, 100 complete control)
[13] = 250 g ai/ha, scale of 0 to 100, 0 is no effect, 100 is complete control
[14] = scale 0 to 100 (0 no effect, 100 complete control)
[15] = 250 g ai/ha, scale 0 to 100 (0 no effect, 100 complete control), visual, 12 to 14 days, preemergence
[16] = scale 0 to 100, 0 no effect, 100 complete control
[17] = Postemergence, 500 g ai/ha, 0 to 100 scale, 0 no effect, 100 complete control
[18] = Postemergence, 2000 g ai/ha, 0 to 100 scale, 0 no effect, 100 complete control
[19] = Preemergence, 2000 g ai/ha, visual rating, 0 to 100 scale (0 no effect, 100 complete control)
[20] = 62 g ai/ha, preemergence, scale 0 to 100
[21] = 250 g ai/ha, scale 0-100, preemergence
[22] = 500 g ai/ha, scale 0 to 100 (0 no effect, 100 complete control), visual, 12 to 14 days, preemergence

CCn1nc(C(C)(C)C)cc1C(=O)Nc1cccc(C(=O)NC2CC2)n1 [Compound 146]
100: Velvetleaf plant response rating (velvetleaf; [8])
90: Sedge, Umbrella plant response rating [1, 13] | Plant response rating, Sedge, Umbrella [1, 14] | Bermudagrass plant response rating (bermudagrass; [16])
40: Plant response rating, Velvetleaf (velvetleaf; [5]) | Velvetleaf plant response rating (velvetleaf; [6]) | Plant response rating, Velvetleaf (velvetleaf; [7]) | Plant response rating, Rice (rice [4]; 500 g ai/ha, visual rating 0-100, 0 no effect, 100 complete control)
5: Plant response rating, Corn (corn; [9]) | Plant response rating, Corn (corn; [10])
15: Crabgrass, Large plant response rating (large crabgrass; [17])
20: Plant response rating, Soybean (soybean; [9]) | Plant response rating, Soybean (soybean; [10]) | Plant response rating, Rice (rice [3]; [14])
0: Plant response rating (0 = no effect, 100 = complete control), Corn (corn; 62 g ai/ha, preemergence) | Plant response rating, Corn (corn; [5]) | Plant response rating (0 = no effect, 100 = complete control), Sunflower ([2]; 62 g ai/ha, preemergence) | Plant response rating, Sunflower [2, 5] | Sunflower plant response rating [2, 8] | Plant response rating (0 = no effect, 100 = complete control), Cupgrass, Woolly (woolly cupgrass; 62 g ai/ha, preemergence) | Plant response rating, Cupgrass, Woolly (woolly cupgrass; [5]) | Plant response rating, Cupgrass, Woolly (woolly cupgrass; [15]) | Cupgrass, Woolly plant response rating (woolly cupgrass; [8]) | Plant response rating, Bermudagrass (bermudagrass; [7]) | Plant response rating (0 = no effect, 100 = complete control), Soybean (soybean; 62 g ai/ha, preemergence) | Plant response rating, Soybean (soybean; [5]) | Soybean plant response rating (soybean; [8]) | Rice plant response rating (rice [3]; [11]) | Rice plant response rating (rice [3]; [12]) | Rice plant response rating (rice [3]; [13])
80: Sedge, Umbrella plant response rating [1, 12] | Soybean plant response rating (soybean; [6]) | Crabgrass, Large plant response rating (large crabgrass; [19])
70: Plant response rating, Bermudagrass (bermudagrass; [15]) | Crabgrass, Large plant response rating (large crabgrass; Preemergence, 500 g ai/ha, visual rating, 0 to 100 scale (0 no effect, 100 complete control))
10: Plant response rating, Corn (corn; [15]) | Plant response rating, Corn (corn; [7]) | Plant response rating, Cupgrass, Woolly (woolly cupgrass; [9]) | Plant response rating, Cupgrass, Woolly (woolly cupgrass; [10]) | Plant response rating (0 = no effect, 100 = complete control), Bermudagrass (bermudagrass; 62 g ai/ha, preemergence) | Plant response rating, Rice (rice [4]; 125 g ai/ha, 0 to 100 scale, 0 is no effect, 100 is complete control)
55: Plant response rating, Crabgrass, Large (large crabgrass; [18])
60: Sedge, Umbrella plant response rating [1, 11] | Plant response rating, Bermudagrass (bermudagrass; [5])
30: Plant response rating, Velvetleaf (velvetleaf; [10]) | Corn plant response rating (corn; [6]) | Corn plant response rating (corn; [8]) | Cupgrass, Woolly plant response rating (woolly cupgrass; [6]) | Plant response rating, Cupgrass, Woolly (woolly cupgrass; [7]) | Plant response rating, Soybean (soybean; [7])
35: Plant response rating, Velvetleaf (velvetleaf; [9])

CCc1nc(C(C)(C)C)sc1C(=O)Nc1cccc(C(=O)NCC2CC2)n1 [Compound 215]
55: Crabgrass, Large plant response rating (large crabgrass; [19])
50: Plant response rating, Corn (corn; [22]) | Plant response rating, Cupgrass, Woolly (woolly cupgrass; [22])
85: Plant response rating, Bermudagrass (bermudagrass; [21])
40: Plant response rating, Velvetleaf (velvetleaf; [21]) | Sedge, Umbrella plant response rating [1, 11] | Sedge, Umbrella plant response rating [1, 12] | Plant response rating, Cupgrass, Woolly (woolly cupgrass; [21]) | Plant response rating, Bermudagrass (bermudagrass; 62 g ai/ha, preemergence, scale 0 to 100, 0 no effect, 100 complete control)
90: Plant response rating, Sedge, Umbrella [1, 14]
100: Plant response rating, Velvetleaf (velvetleaf; [22]) | Bermudagrass plant response rating (bermudagrass; [16])
0: Plant response rating, Velvetleaf (velvetleaf; [20]) | Plant response rating, Corn (corn; [20]) | Plant response rating, Sunflower [2, 20] | Plant response rating, Sunflower [2, 21] | Plant response rating, Sunflower [2, 22] | Plant response rating, Cupgrass, Woolly (woolly cupgrass; [20]) | Plant response rating, Soybean (soybean; [20]) | Plant response rating, Soybean (soybean; [21]) | Plant response rating, Soybean (soybean; [22]) | Rice plant response rating (rice [3]; [11]) | Rice plant response rating (rice [3]; [12]) | Rice plant response rating (rice [3]; [13]) | Rice plant response rating (0 to 100 scale) (rice [4]; 125 g ai/ha, 0 = no effect, 100 = complete control) | Plant response rating, Rice (rice [4]; 500 g ai/ha, visual rating, 0 = no effect, 100 = complete control)
70: Sedge, Umbrella plant response rating [1, 13] | Plant response rating, Bermudagrass (bermudagrass; [5])
10: Plant response rating, Cupgrass, Woolly (woolly cupgrass; [5])
30: Plant response rating, Crabgrass, Large (large crabgrass; [18]) | Crabgrass, Large plant response rating (large crabgrass; preemergence, 500 g ai/ha, visual injury, 0 to 100 scale (0 no effect, 100 complete control))
20: Plant response rating, Corn (corn; [5]) | Plant response rating, Corn (corn; [21]) | Crabgrass, Large plant response rating (large crabgrass; [17]) | Plant response rating, Rice (rice [3]; [14])
